Experimental data from US20070105865A1, “Substituted bicyclic quinazolin-4-ylamine derivatives” (Neurogen Corporation, priority 2003, published 2007).
Counter-ions that a name gives are not always drawn.

Target: T1, human capsaicin receptor (Homo sapiens, UniProt Q8NER1)
T1 construct: transfected with the pBK-CMV expression construct encoding the full length human capsaicin receptor using standard methods; expressed in transfected cells
Assay: Calcium mobilization assay (Example 6)
Type: cell-based
Details: determined as described in Example 6; cells expressing human capsaicin receptor, capsaicin response
Protocol: Human embryonic kidney (HEK293) cells were transfected with the pBK-CMV expression construct encoding the full length human capsaicin receptor using standard methods. The transfected cells were selected for two weeks in media containing G418 (400 μg/ml) to obtain a pool of stably transfected cells. Independent clones were isolated from this pool by limiting dilution to obtain clonal stable cell lines for use in subsequent experiments.
This Example illustrates a representative calcium mobilization assay for use in monitoring the response of cells expressing capsaicin receptor to capsaicin and other vanilloid ligands of the capsaicin receptor, as well as for evaluating test compounds for agonist and antagonist activity.
Cells transfected with expression plasmids (as described in Example 4) and thereby expressing human capsaicin receptor are seeded and grown to 70-90% confluency in FALCON black-walled, clear-bottomed 96-well plates (#3904, BECTON-DICKINSON, Franklin Lakes, N.J.). The culture medium is emptied from the 96 well plates and FLUO-3 AM calcium sensitive dye (Molecular Probes, Eugene, Oreg.) is added to each well (dye solution: 1 mg FLUO-3 AM, 440 μL DMSO and 440 μl 20% pluronic acid in DMSO, diluted 1:250 in Krebs-Ringer HEPES (KRH) buffer (25 mM HEPES, 5 mM KCl, 0.96 mM NaH2PO4, 1 mM MgSO4, 2 mM CaCl2, 5 mM glucose, 1 mM probenecid, pH 7.4), 50 μl diluted solution per well). Plates are covered with aluminum foil and incubated at 37° C. for 1-2 hours in an environment containing 5% CO2. After the incubation, the dye is emptied from the plates, and the cells are washed once with KRH buffer, and resuspended in KRH buffer.
Agonist (e.g., olvanil, capsaicin or RTX)-induced calcium mobilization is monitored using either FLUOROSKAN ASCENT (Labsystems, Franklin, Mass.) or FLIPR (fluorometric imaging plate reader system, Molecular Devices, Sunnyvale, Calif.) instruments. Varying concentrations of the antagonists ruthenium red or capsazepine (RBI; Natick, Mass.) are added to cells concurrently with agonist (e.g., 25-50 nM capsaicin). For agonist-induced calcium responses, data obtained between 30 and 60 seconds after agonist application are used to generate the IC50 values. KALEIDAGRAPH software (Synergy Software, Reading, Pa.) is used to fit the data to the equation: y=a*(1/(1+(b/x)^c)) to determine the IC50 for the response. In this equation, y is the maximum fluorescence signal, x is the concentration of the agonist or antagonist, a is the Emax, b corresponds to the IC50 value and c is the Hill coefficient.
To measure the ability of a test compound to antagonize (inhibit) the response of cells expressing capsaicin receptors to capsaicin or other vanilloid agonist, the IC50 of capsaicin is first determined. An additional 20 μl of KRH buffer and 1 μl DMSO is added to each well of cells, prepared as described above. 100 μl capsaicin in KRH buffer is automatically transferred by the FLIPR instrument to each well. An 8-point concentration response curve, with final capsaicin concentrations of 1 nM to 3 μM, is used to determine capsaicin IC50.
Test compounds are dissolved in DMSO, diluted in 20 μl KRH buffer so that the final concentration of test compounds in the assay well is between 1 μM and 5 μM, and added to cells prepared as described above. The 96 well plates containing prepared cells and test compounds are incubated in the dark, at room temperature for 0.5 to 6 hours. It is important that the incubation not continue beyond 6 hours. Just prior to determining the fluorescence response, 100 μl capsaicin in KRH buffer at twice the IC50 concentration determined from the concentration response curve is automatically added by the FLIPR instrument to each well of the 96 well plate for a final sample volume of 200 μl and a final capsaicin concentration equal to the IC50. The final concentration of test compounds in the assay wells is between 1 μM and 5 μM. […]

T1 sequence (Q8NER1 whole entry): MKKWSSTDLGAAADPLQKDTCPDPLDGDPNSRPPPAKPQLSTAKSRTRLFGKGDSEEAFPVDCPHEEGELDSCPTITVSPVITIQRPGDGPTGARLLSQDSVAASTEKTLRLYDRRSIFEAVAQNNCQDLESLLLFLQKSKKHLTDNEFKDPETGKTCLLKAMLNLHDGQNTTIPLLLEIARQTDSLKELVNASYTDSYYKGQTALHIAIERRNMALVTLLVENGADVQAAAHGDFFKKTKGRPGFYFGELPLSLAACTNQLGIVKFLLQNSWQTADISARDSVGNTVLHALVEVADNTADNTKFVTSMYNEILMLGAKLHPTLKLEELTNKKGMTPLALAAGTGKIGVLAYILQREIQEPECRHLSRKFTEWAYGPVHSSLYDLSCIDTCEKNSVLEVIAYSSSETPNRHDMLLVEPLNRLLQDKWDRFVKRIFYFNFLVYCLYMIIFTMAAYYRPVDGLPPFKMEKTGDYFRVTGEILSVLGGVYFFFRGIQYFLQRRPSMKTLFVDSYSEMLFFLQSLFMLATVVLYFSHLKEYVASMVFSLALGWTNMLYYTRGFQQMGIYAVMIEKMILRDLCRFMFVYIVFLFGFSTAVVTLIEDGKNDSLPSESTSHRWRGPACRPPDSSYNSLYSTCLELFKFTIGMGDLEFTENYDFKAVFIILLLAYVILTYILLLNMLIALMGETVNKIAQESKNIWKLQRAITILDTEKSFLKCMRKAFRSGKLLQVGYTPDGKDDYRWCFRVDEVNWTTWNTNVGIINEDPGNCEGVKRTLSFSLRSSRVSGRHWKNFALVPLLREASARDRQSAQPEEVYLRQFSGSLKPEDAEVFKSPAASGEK

| SMILES | IC50 |
| --- | --- |
| COCc1nc(Nc2ccc3c(c2)N(C)CCC3)c2ccc(-c3ncccc3Cl)nc2n1 [Compound 1, [7-(3-Chloro-pyridin-2-yl)-2-methoxymethyl-pyrido[2,3-d]pyrimidin-4-yl]-(1-methyl-1,2,3,4-tetrahydro-quinolin-7-yl)-amine] | < 1000 nM |
| CN1Cc2cc(Nc3ncnc4cc(-c5ncccc5C(F)(F)F)ccc34)ccc2C(C)(C)C1 [Compound 3, [7-(3-Trifluoromethyl-pyridin-2-yl)-quinazolin-4-yl]-(2,4,4-trimethyl-1,2,3,4-tetrahydro-isoquinolin-7-yl)-amine hydrochloride] | < 1000 nM |
| CC(C)COCc1nc(Nc2ccc3c(c2)NCCC3(C)C)c2ccc(-c3ncccc3C(F)(F)F)nc2n1 [Compound 4, (4,4-Dimethyl-1,2,3,4-tetrahydro-quinolin-7-yl)-[2-isobutoxymethyl-7-(3-trifluoromethyl-pyridin-2-yl)pyrido[2,3-d]pyrimidin-4-yl]-amine hydrochloride] | < 1000 nM |
| COCc1nc(Nc2ccc3c(c2)NCCC3)c2ccc(-c3ncccc3C(F)(F)F)nc2n1 [Compound 5, [2-Methoxymethyl-7-(3-trifluorometyl-pyridin-2-yl)-pyrido[2,3-d]pyrimidin-4-yl]-(1,2,3,4-tetrahydro-quinolin-7-yl)-amine] | < 1000 nM |
| CCOCc1nc(Nc2ccc3c(c2)N(C)CCO3)c2ccc(-c3ncccc3Cl)nc2n1 [Compound 6] | < 1000 nM |
| CCOCc1nc(Nc2ccc3c(c2)N(C(C)=O)CC3(C)C)c2ccc(-c3ncccc3C)nc2n1 [Compound 7, 1-{6-[2-Ethoxymethyl-7-(3-methyl-pyridin-2-yl)-pyrido[2,3-d]pyrimidin-4-ylamino]-3,3-dimethyl-2,3-dihydro-indol-1-yl}-ethanone] | < 1000 nM |
| CC(C)COCc1nc(Nc2ccc3c(c2)N(C)CC3(C)C)c2ccc(-c3ncccc3Cl)nc2n1 [Compound 8, [7-(3-Chloro-pyridin-2-yl)-2-isobutoxymethyl-pyrido[2,3-d]pyrimidin-4-yl]-(1,3,3-trimethyl-2,3-dihydro-1H-indol-6-yl)-amine] | < 1000 nM |
| CN1Cc2cc(Nc3ncnc4cc(-c5ncccc5Cl)cnc34)ccc2C(C)(C)C1 [Compound 9, [7-(3-Chloro-pyridin-2-yl)-pyrido[3,2-d]pyrimidin-4-yl]-(2,4,4-trimethyl-1,2,3,4-tetrahydro-isoquinolin-7-yl)-amine hydrochloride] | < 1000 nM |
| COCc1cc(Nc2ccc3c(c2)NCCC3(C)C)c2ccc(-c3ncccc3C(F)(F)F)nc2n1 [Compound 10] | < 1000 nM |
